Columns and labels:
rat [1] = conditions: Multigenerational reproductive toxicity study; sprague dawley; Oral; Feed; dose end: 2 generation; group: offspring; systemic / in life observation / body weight / offspring (pup) weight
mouse = conditions: Carcinogenicity, cd1, Oral, Feed, dose end: 104 week, group: systemic
rat [2] = conditions: Prenatal developmental toxicity study, sprague dawley, Oral, Gavage/Intubation, dose end: 15 GD
rabbit = conditions: Prenatal developmental toxicity study; new zealand white; Oral; Gavage/Intubation; dose end: 18 GD; group: maternal; systemic / in life observation / clinical signs / general motor disturbances + systemic / in life observation / clinical signs / partial …
rat [3] = conditions: Prenatal developmental toxicity study, sprague dawley, Oral, Gavage/Intubation, dose end: 15 GD; remark: listed apart in the source
rat [4] = conditions: Subchronic dermal toxicity, sprague dawley, Topical, dose end: 91 day, group: systemic, systemic / in life observation / clinical signs / erythema
[5] = systemic / in life observation / body weight / body weight gain + systemic / pathology microscopic / intestine small / hyperplasia + …
[6] = group: developmental, developmental / developmental malformation / bone / absent + developmental / developmental malformation / bone / fused + developmental / …
[7] = group: maternal, systemic / in life observation / clinical signs / alopecia + systemic / in life observation / clinical signs / defecation (diarrhea) + …
[8] = group: developmental, developmental / developmental malformation / bone / bent + developmental / developmental malformation / bone / unossified + developmental / …
[9] = group: maternal, systemic / in life observation / body weight / body weight + systemic / in life observation / clinical signs / reduced activity + systemic…

For N#CSCSc1nc2ccccc2s1 [2-(Thiocyanomethylthio)benzothiazole], the LEL (rat [1]) was 38.4 mg/kg/day, the LOAEL (rat [1]) was 38.4 mg/kg/day and the NEL (rat [1]) was 9.6 mg/kg/day. It also gave an NOAEL (rat [1]) of 9.6 mg/kg/day, an LOAEL (mouse; systemic / in life observation / body weight / body weight gain + systemic / pathology microscopic / intestine small / hyperplasia) of 148 mg/kg/day and an LEL (mouse; [5]) of 148 mg/kg/day. It also gave an NEL (mouse; [5]) of 49.3 mg/kg/day, an NOAEL (mouse; [5]) of 49.3 mg/kg/day and an LEL (rat [2]; [6]) of 126 mg/kg/day. For the same compound, the LOAEL (rat [2]; [6]) was 126 mg/kg/day, the NEL (rat [2]; [6]) was 76.5 mg/kg/day and the NOAEL (rat [2]; [6]) was 76.5 mg/kg/day. For the same compound, the LEL (rat [2]; [7]) was 76.5 mg/kg/day, the LOAEL (rat [2]; [7]) was 76.5 mg/kg/day and the NEL (rat [2]; [7]) was 25.1 mg/kg/day. For the same compound, the NOAEL (rat [2]; [7]) was 25.1 mg/kg/day.

Compound N#CN=C([S-])[S-].[Na+].[Na+] [Disodium cyanodithioimidocarbonate] has an LEL (rabbit) of 10 mg/kg/day, an LOAEL (rabbit) of 10 mg/kg/day and an NEL (rabbit) of 3 mg/kg/day. It also gave an NOAEL (rabbit) of 3 mg/kg/day, an LOAEL (rat [3]; group: developmental, developmental / developmental malformation / bone / bent + developmental / developmental malformation / bone / unossified) of 18 mg/kg/day and an LEL (rat [3]; [8]) of 18 mg/kg/day. For the same compound, the NEL (rat [3]; [8]) was 6 mg/kg/day, the NOAEL (rat [3]; [8]) was 6 mg/kg/day and the LOAEL (rat [3]; group: maternal, systemic / in life observation / body weight / body weight + systemic / in life observation / clinical signs / reduced activity) was 18 mg/kg/day. It also gave an LEL (rat [3]; [9]) of 18 mg/kg/day, an NEL (rat [3]; [9]) of 6 mg/kg/day and an NOAEL (rat [3]; [9]) of 6 mg/kg/day. The LEL (rat [4]) was 25 mg/kg/day, the LOAEL (rat [4]) was 25 mg/kg/day and the NEL (rat [4]) was under 25 mg/kg/day. The NOAEL (rat [4]) was under 25 mg/kg/day.
